Laboratory results published in PubChem BioAssay (NCI).
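1) Cells in 96-well plates. 2) Compound, 48 h, 5 concentrations. 3) Linear interpolation between surrounding doses. 4) Unreached endpoint = highest concentration. The concentration for 50% growth inhibition is given as GI50. TGI is the concentration that stops growth completely.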

Assays:
Assay in all cases: growth of human tumour cells (NCI), 48 h
TK-10 renal = test system: TK-10 renal
CAKI-1 renal = test system: CAKI-1 renal
SF-268 CNS = test system: SF-268 CNS
UACC-257 melanoma = test system: UACC-257 melanoma
COLO 205 colon = test system: COLO 205 colon
U251 CNS = test system: U251 CNS
ACHN renal = test system: ACHN renal
HT29 colon = test system: HT29 colon
RXF 393 renal = test system: RXF 393 renal
NCI-H23 lung = test system: NCI-H23 lung
SR leukemia = test system: SR leukemia
UO-31 renal = test system: UO-31 renal
OVCAR-4 ovarian = test system: OVCAR-4 ovarian
SN12C renal = test system: SN12C renal
MDA-MB-435 = test system: MDA-MB-435
NCI-H460 lung = test system: NCI-H460 lung
RPMI-8226 leukemia = test system: RPMI-8226 leukemia
DU-145 prostate = test system: DU-145 prostate
MDA-MB-231 breast = test system: MDA-MB-231 breast
MALME-3M melanoma = test system: MALME-3M melanoma
OVCAR-3 ovarian = test system: OVCAR-3 ovarian
M14 melanoma = test system: M14 melanoma
OVCAR-5 ovarian = test system: OVCAR-5 ovarian
HS 578T breast = test system: HS 578T breast
HOP-62 NSCLC = test system: HOP-62 NSCLC
KM12 colon = test system: KM12 colon
SK-OV-3 ovarian = test system: SK-OV-3 ovarian
SF-539 CNS = test system: SF-539 CNS
SK-MEL-28 melanoma = test system: SK-MEL-28 melanoma
NCI-H226 lung = test system: NCI-H226 lung
T-47D breast = test system: T-47D breast
SK-MEL-5 melanoma = test system: SK-MEL-5 melanoma
SW-620 colon = test system: SW-620 colon
HCT-15 colon = test system: HCT-15 colon
HCC-2998 colon = test system: HCC-2998 colon
786-0 renal = test system: 786-0 renal
SNB-75 CNS = test system: SNB-75 CNS
K-562 leukemia = test system: K-562 leukemia
IGROV1 ovarian = test system: IGROV1 ovarian
BT-549 breast = test system: BT-549 breast
SK-MEL-2 melanoma = test system: SK-MEL-2 melanoma
HOP-92 NSCLC = test system: HOP-92 NSCLC
SNB-19 CNS = test system: SNB-19 CNS
MOLT-4 leukemia = test system: MOLT-4 leukemia
SF-295 CNS = test system: SF-295 CNS
NCI/ADR-RES ovarian = test system: NCI/ADR-RES ovarian
LOX IMVI melanoma = test system: LOX IMVI melanoma
EKVX NSCLC = test system: EKVX NSCLC
HCT-116 colon = test system: HCT-116 colon
PC-3 prostate = test system: PC-3 prostate
CCRF-CEM leukemia = test system: CCRF-CEM leukemia
MCF7 breast = test system: MCF7 breast
HL-60(TB) leukemia = test system: HL-60(TB) leukemia
OVCAR-8 ovarian = test system: OVCAR-8 ovarian
A549 NSCLC = test system: A549 NSCLC
UACC-62 melanoma = test system: UACC-62 melanoma
A498 renal = test system: A498 renal
NCI-H522 lung = test system: NCI-H522 lung

Cc1cc(-c2ncc(-c3cccnc3)cc2/C=C/c2ccccc2)cnc1-c1cccnc1
TGI (TK-10 renal): > 100 µM
GI50 (CAKI-1 renal): 4.25 µM
TGI (CAKI-1 renal): > 100 µM
GI50 (SF-268 CNS): 5.81 µM
TGI (SF-268 CNS): > 100 µM
GI50 (UACC-257 melanoma): 5.08 µM
TGI (UACC-257 melanoma): > 100 µM
TGI (COLO 205 colon): > 100 µM
GI50 (U251 CNS): 4.54 µM
TGI (U251 CNS): > 100 µM
GI50 (ACHN renal): 3.91 µM
TGI (ACHN renal): > 100 µM
GI50 (HT29 colon): 3.52 µM
TGI (HT29 colon): > 100 µM
GI50 (RXF 393 renal): 4.13 µM
TGI (RXF 393 renal): 75.3 µM
GI50 (NCI-H23 lung): 4.59 µM
TGI (NCI-H23 lung): > 100 µM
GI50 (SR leukemia): 2.69 µM
TGI (SR leukemia): > 28.5 µM
GI50 (UO-31 renal): 2.27 µM
TGI (UO-31 renal): 9.04 µM
GI50 (OVCAR-4 ovarian): > 21.1 µM
TGI (OVCAR-4 ovarian): > 100 µM
GI50 (SN12C renal): 3.59 µM
TGI (SN12C renal): > 100 µM
TGI (MDA-MB-435): > 100 µM
GI50 (NCI-H460 lung): 2.28 µM
TGI (NCI-H460 lung): 5.27 µM
GI50 (RPMI-8226 leukemia): 2.53 µM
TGI (RPMI-8226 leukemia): 16.7 µM
GI50 (DU-145 prostate): 3.35 µM
TGI (DU-145 prostate): > 100 µM
GI50 (MDA-MB-231 breast): 4.76 µM
TGI (MDA-MB-231 breast): > 100 µM
GI50 (MALME-3M melanoma): 2.81 µM
TGI (MALME-3M melanoma): 16.9 µM
GI50 (OVCAR-3 ovarian): 3.48 µM
TGI (OVCAR-3 ovarian): 37.7 µM
GI50 (M14 melanoma): 4.24 µM
TGI (M14 melanoma): > 100 µM
GI50 (OVCAR-5 ovarian): > 72.6 µM
TGI (OVCAR-5 ovarian): > 100 µM
GI50 (HS 578T breast): 3.39 µM
TGI (HS 578T breast): > 100 µM
GI50 (HOP-62 NSCLC): 4.45 µM
TGI (HOP-62 NSCLC): 97.5 µM
GI50 (KM12 colon): 3.3 µM
TGI (KM12 colon): > 100 µM
GI50 (SK-OV-3 ovarian): 19.1 µM
TGI (SK-OV-3 ovarian): > 100 µM
GI50 (SF-539 CNS): 11.5 µM
TGI (SF-539 CNS): > 33.2 µM
GI50 (SK-MEL-28 melanoma): > 20.2 µM
TGI (SK-MEL-28 melanoma): > 100 µM
GI50 (NCI-H226 lung): 2.62 µM
TGI (NCI-H226 lung): 7.61 µM
GI50 (T-47D breast): 2.4 µM
TGI (T-47D breast): > 30.8 µM
GI50 (SK-MEL-5 melanoma): 1.46 µM
TGI (SK-MEL-5 melanoma): 3.02 µM
GI50 (SW-620 colon): 4.41 µM
TGI (SW-620 colon): > 100 µM
GI50 (HCT-15 colon): 2.95 µM
TGI (HCT-15 colon): > 100 µM
GI50 (HCC-2998 colon): > 25.4 µM
TGI (HCC-2998 colon): > 100 µM
GI50 (786-0 renal): 6.05 µM
TGI (786-0 renal): > 100 µM
GI50 (SNB-75 CNS): 5.23 µM
TGI (SNB-75 CNS): > 63.4 µM
GI50 (K-562 leukemia): 3.28 µM
TGI (K-562 leukemia): > 100 µM
GI50 (IGROV1 ovarian): 5.39 µM
TGI (IGROV1 ovarian): > 100 µM
GI50 (BT-549 breast): 3.05 µM
TGI (BT-549 breast): 20.8 µM
GI50 (SK-MEL-2 melanoma): 4.93 µM
TGI (SK-MEL-2 melanoma): > 66.9 µM
GI50 (HOP-92 NSCLC): 2.96 µM
TGI (HOP-92 NSCLC): > 26 µM
GI50 (SNB-19 CNS): 5.32 µM
TGI (SNB-19 CNS): > 100 µM
GI50 (MOLT-4 leukemia): 1.47 µM
TGI (MOLT-4 leukemia): 5.99 µM
GI50 (SF-295 CNS): 5.62 µM
TGI (SF-295 CNS): 52.1 µM
GI50 (NCI/ADR-RES ovarian): 3.62 µM
TGI (NCI/ADR-RES ovarian): > 100 µM
GI50 (LOX IMVI melanoma): 3.12 µM
TGI (LOX IMVI melanoma): 19.7 µM
GI50 (EKVX NSCLC): 3.39 µM
TGI (EKVX NSCLC): > 100 µM
GI50 (HCT-116 colon): 4.22 µM
TGI (HCT-116 colon): > 100 µM
GI50 (PC-3 prostate): 3.21 µM
TGI (PC-3 prostate): > 100 µM
GI50 (CCRF-CEM leukemia): 1.17 µM
TGI (CCRF-CEM leukemia): 7.76 µM
GI50 (MCF7 breast): 3.02 µM
TGI (MCF7 breast): > 100 µM
GI50 (HL-60(TB) leukemia): 2.35 µM
TGI (HL-60(TB) leukemia): 12.3 µM
GI50 (OVCAR-8 ovarian): 3.81 µM
TGI (OVCAR-8 ovarian): > 100 µM
GI50 (A549 NSCLC): 3.92 µM
TGI (A549 NSCLC): > 100 µM
GI50 (UACC-62 melanoma): 3.91 µM
TGI (UACC-62 melanoma): > 83.9 µM
GI50 (A498 renal): 2.31 µM
TGI (A498 renal): > 30.9 µM
GI50 (NCI-H522 lung): 3.01 µM
TGI (NCI-H522 lung): 14.9 µM
